ChEMBL document CHEMBL2401671, “Nucleic acid changes during photodynamic inactivation of bacteria by cationic porphyrins” (Bioorg Med Chem, 2013)
Active and inactive are the calls of the source. The rule behind the calls is not given here.

Columns and labels:
Staphylococcus warneri [1] = assay: Photodynamic inactivation of Staphylococcus warneri assessed as reduction in intracellular double stranded DNA concentration at 0.5 uM preincubated for 10 mins followed by visible light irradiation for 30 mins by fluorimetric analysis relative to control; format: functional; set-up: scale not given: the % may be the effect or the level left
Staphylococcus warneri [2] = assay: Photodynamic inactivation of Staphylococcus warneri assessed as reduction in cell survival at 0.5 uM preincubated for 10 mins followed by visible light irradiation for 15 mins; format: functional
Staphylococcus warneri [3] = assay: Photodynamic inactivation of Staphylococcus warneri assessed as reduction in intracellular double stranded DNA concentration at 0.5 uM preincubated for 10 mins followed by visible light irradiation for 5 mins by fluorimetric analysis relative to control; format: functional; set-up: scale not given: the % may be the effect or the level left
Escherichia coli [4] = assay: Photodynamic inactivation of Escherichia coli ATCC 25922 assessed as reduction in intracellular double stranded DNA concentration at 5 uM preincubated for 10 mins followed by visible light irradiation for 15 mins by fluorimetric analysis relative to control; format: functional; set-up: scale not given: the % may be the effect or the level left
Escherichia coli [5] = assay: Photodynamic inactivation of Escherichia coli ATCC 25922 assessed as reduction in cell survival at 5 uM preincubated for 10 mins followed by visible light irradiation at 8 J cm'-2 light dose; format: functional
Staphylococcus warneri [6] = assay: Photodynamic inactivation of Staphylococcus warneri assessed as reduction in cell survival at 0.5 uM preincubated for 10 mins followed by visible light irradiation for 20 mins; format: functional
Escherichia coli [7] = assay: Photodynamic inactivation of Escherichia coli ATCC 25922 assessed as reduction in genomic DNA level at 5 uM preincubated for 10 mins followed by visible light irradiation for 15 mins by agarose gel electrophoresis; format: functional, organism-based
Escherichia coli [8] = assay: Photodynamic inactivation of Escherichia coli ATCC 25922 assessed as reduction in intracellular double stranded DNA concentration at 5 uM preincubated for 10 mins followed by visible light irradiation for 30 mins by fluorimetric analysis relative to control; format: functional; set-up: scale not given: the % may be the effect or the level left
Escherichia coli [9] = assay: Photodynamic inactivation of Escherichia coli ATCC 25922 assessed as reduction in intracellular double stranded DNA concentration at 5 uM preincubated for 10 mins followed by visible light irradiation for 90 mins by fluorimetric analysis relative to control; format: functional; set-up: scale not given: the % may be the effect or the level left
Staphylococcus warneri [10] = assay: Photodynamic inactivation of Staphylococcus warneri assessed as reduction in intracellular double stranded DNA concentration at 0.5 uM preincubated for 10 mins followed by visible light irradiation for 15 mins by fluorimetric analysis relative to control; format: functional; set-up: scale not given: the % may be the effect or the level left
Escherichia coli [11] = assay: Drug uptake in Escherichia coli ATCC 25922 at 5 uM incubated for 10 mins followed by compound washout by spectrofluorimetric analysis relative to control; format: ADME, organism-based; conditions: in vivo
Escherichia coli [12] = assay: Photodynamic inactivation of Escherichia coli ATCC 25922 assessed as reduction in intracellular double stranded DNA concentration at 5 uM preincubated for 10 mins followed by visible light irradiation for 60 mins by fluorimetric analysis relative to control; format: functional; set-up: scale not given: the % may be the effect or the level left
Staphylococcus warneri [13] = assay: Photodynamic inactivation of Staphylococcus warneri assessed as reduction in intracellular double stranded DNA concentration at 0.5 uM preincubated for 10 mins followed by visible light irradiation by fluorimetric analysis; format: functional, organism-based; conditions: TDE = time-dependent effect
Staphylococcus warneri [14] = assay: Photodynamic inactivation of Staphylococcus warneri assessed as reduction in cell survival at 0.5 uM preincubated for 10 mins followed by visible light irradiation at 5 J cm'-2 light dose; format: functional
Escherichia coli [15] = assay: Photodynamic inactivation of Escherichia coli ATCC 25922 assessed as reduction in intracellular double stranded DNA concentration at 5 uM preincubated for 10 mins followed by visible light irradiation by fluorimetric analysis; format: functional, organism-based; conditions: TDE = time-dependent effect
Staphylococcus warneri [16] = assay: Photodynamic inactivation of Staphylococcus warneri assessed as reduction in intracellular double stranded DNA concentration at 0.5 uM preincubated for 10 mins followed by visible light irradiation for 40 mins by fluorimetric analysis relative to control; format: functional; set-up: scale not given: the % may be the effect or the level left
Staphylococcus warneri [17] = assay: Photodynamic inactivation of Staphylococcus warneri assessed as reduction in cell survival at 0.5 uM preincubated for 10 mins followed by visible light irradiation for 5 mins; format: functional
Escherichia coli [18] = assay: Photodynamic inactivation of Escherichia coli ATCC 25922 assessed as reduction in nucleic acid level at 5 uM preincubated for 10 mins followed by visible light irradiation for 60 mins by agarose gel electrophoresis; format: functional, organism-based
Escherichia coli [19] = assay: Photodynamic inactivation of Escherichia coli ATCC 25922 assessed as reduction in cell survival at 5 uM preincubated for 10 mins followed by visible light irradiation for 270 mins; format: functional
Escherichia coli [20] = assay: Photodynamic inactivation of Escherichia coli ATCC 25922 assessed as reduction in degraded DNA and mRNA level at 5 uM preincubated for 10 mins followed by visible light irradiation for 30 mins by agarose gel electrophoresis; format: functional, organism-based
Staphylococcus warneri [21] = assay: Drug uptake in Staphylococcus warneri at 0.5 uM after 10 mins by spectrofluorimetric analysis; format: ADME, organism-based; conditions: in vivo
Escherichia coli [22] = assay: Photodynamic inactivation of Escherichia coli ATCC 25922 assessed as reduction in cell survival at 5 uM preincubated for 10 mins followed by visible light irradiation for 90 mins; format: functional
Escherichia coli [23] = assay: Photodynamic inactivation of Escherichia coli ATCC 25922 assessed as reduction in cell survival at 5 uM preincubated for 10 mins followed by visible light irradiation for 15 mins; format: functional
Escherichia coli [24] = assay: Photodynamic inactivation of Escherichia coli ATCC 25922 assessed as reduction in intracellular double stranded DNA concentration at 5 uM preincubated for 10 mins followed by visible light irradiation for 270 mins by fluorimetric analysis relative to control; format: functional; set-up: scale not given: the % may be the effect or the level left
Escherichia coli [25] = assay: Photodynamic inactivation of Escherichia coli ATCC 25922 assessed as reduction in rRNA level at 5 uM preincubated for 10 mins followed by visible light irradiation for 15 mins by agarose gel electrophoresis; format: functional, organism-based
Staphylococcus warneri [26] = assay: Photodynamic inactivation of Staphylococcus warneri assessed as reduction in nucleic acid level at 0.5 uM preincubated for 10 mins followed by visible light irradiation for 20 to 40 mins by agarose gel electrophoresis; format: functional, organism-based
Staphylococcus warneri [27] = assay: Photodynamic inactivation of Staphylococcus warneri assessed as reduction in cell survival at 0.5 uM preincubated for 10 mins followed by visible light irradiation for 40 mins; format: functional
Staphylococcus warneri [28] = assay: Photodynamic inactivation of Staphylococcus warneri assessed as reduction in intracellular double stranded DNA concentration at 0.5 uM preincubated for 10 mins followed by visible light irradiation for 10 mins by fluorimetric analysis relative to control; format: functional; set-up: scale not given: the % may be the effect or the level left
Escherichia coli [29] = assay: Photodynamic inactivation of Escherichia coli ATCC 25922 assessed as reduction in intracellular double stranded DNA concentration at 5 uM preincubated for 10 mins followed by visible light irradiation for 180 mins by fluorimetric analysis relative to control; format: functional; set-up: scale not given: the % may be the effect or the level left
Escherichia coli [30] = assay: Photodynamic inactivation of Escherichia coli ATCC 25922 assessed as reduction in cell survival at 5 uM preincubated for 10 mins followed by visible light irradiation for 60 mins; format: functional
Escherichia coli [31] = assay: Photodynamic inactivation of Escherichia coli ATCC 25922 assessed as reduction in cell survival at 5 uM preincubated for 10 mins followed by visible light irradiation for 180 mins; format: functional
Staphylococcus warneri [32] = assay: Photodynamic inactivation of Staphylococcus warneri assessed as reduction in genomic DNA level at 0.5 uM preincubated for 10 mins followed by visible light irradiation for 5 to 15 mins by agarose gel electrophoresis; format: functional, organism-based
Staphylococcus warneri [33] = assay: Photodynamic inactivation of Staphylococcus warneri assessed as reduction in cell survival at 0.5 uM preincubated for 10 mins followed by visible light irradiation for 30 mins; format: functional
Staphylococcus warneri [34] = assay: Photodynamic inactivation of Staphylococcus warneri assessed as reduction in cell survival at 0.5 uM preincubated for 10 mins followed by visible light irradiation for 10 mins; format: functional
Escherichia coli [35] = assay: Drug uptake in Escherichia coli ATCC 25922 at 5 uM after 10 mins by spectrofluorimetric analysis; format: ADME, organism-based; conditions: in vivo
Escherichia coli [36] = assay: Photodynamic inactivation of Escherichia coli ATCC 25922 assessed as reduction in cell survival at 5 uM preincubated for 10 mins followed by visible light irradiation for 30 mins; format: functional
Staphylococcus warneri [37] = assay: Photodynamic inactivation of Staphylococcus warneri assessed as reduction in intracellular double stranded DNA concentration at 0.5 uM preincubated for 10 mins followed by visible light irradiation for 20 mins by fluorimetric analysis relative to control; format: functional; set-up: scale not given: the % may be the effect or the level left
Staphylococcus warneri [38] = assay: Drug uptake in Staphylococcus warneri at 0.5 uM incubated for 10 mins followed by compound washout by spectrofluorimetric analysis relative to control; format: ADME, organism-based; conditions: in vivo
Escherichia coli [39] = assay: Photodynamic inactivation of Escherichia coli ATCC 25922 assessed as reduction in 16S rRNA level at 5 uM preincubated for 10 mins followed by visible light irradiation for 30 mins by agarose gel electrophoresis; format: functional, organism-based
Escherichia coli [40] = assay: Photodynamic inactivation of Escherichia coli ATCC 25922 assessed as reduction in 23S rRNA level at 5 uM preincubated for 10 mins followed by visible light irradiation for 30 mins by agarose gel electrophoresis; format: functional, organism-based
Staphylococcus warneri [41] = assay: Photodynamic inactivation of Staphylococcus warneri assessed as reduction in DNA level at 0.5 uM preincubated for 10 mins followed by visible light irradiation for 40 mins by agarose gel electrophoresis; format: functional, organism-based
Staphylococcus warneri [42] = assay: Photodynamic inactivation of Staphylococcus warneri assessed as reduction in DNA level at 0.5 uM preincubated for 10 mins followed by visible light irradiation for 5 to 30 mins by agarose gel electrophoresis; format: functional, organism-based

Row | Structure (SMILES) | Activity (Staphylococcus warneri [1]) | log10CFU/ml (Staphylococcus warneri [2]) | Activity (Staphylococcus warneri [3]) | Activity (Escherichia coli [4]) | Activity (Escherichia coli [5]) | log10CFU/ml (Staphylococcus warneri [6]) | Activity (Escherichia coli [7]) | Activity (Escherichia coli [8]) | Activity (Escherichia coli [9]) | Activity (Staphylococcus warneri [10]) | Drug uptake (Escherichia coli [11]) | Activity (Escherichia coli [12]) | Activity (Staphylococcus warneri [14]) | Activity (Escherichia coli [15]) | Activity (Staphylococcus warneri [16]) | log10CFU/ml (Staphylococcus warneri [17]) | Activity (Escherichia coli [18]) | log10CFU/ml (Escherichia coli [19]) | Drug uptake (Staphylococcus warneri [21]) | log10CFU/ml (Escherichia coli [22]) | also measured
1 | C[n+]1ccc(-c2c3nc(c(-c4cc[n+](C)cc4)c4ccc([nH]4)c(-c4c(F)c(F)c(F)c(F)c4F)c4nc(c(-c5cc[n+](C)cc5)c5ccc2[nH]5)C=C4)C=C3)cc1.[I-].[I-].[I-] | 91.9% | 5.6 | 66.2% | 23.1% | 99.9% | 6.9 | Active | 55.1% | 98.3% | 78% | 47% | 98.4% | 99.9% | tde | 92.2% | 4.8 | Active | 7.7 | Active | 5.8 | Activity (Staphylococcus warneri [13]): tde; Activity (Escherichia coli [20]): Active; log10CFU/ml (Escherichia coli [23]): 3.1; Activity (Escherichia coli [24]): 99.6%; Activity (Escherichia coli [25]): Active; Activity (Staphylococcus warneri [26]): Active; log10CFU/ml (Staphylococcus warneri [27]): 7.5; Activity (Staphylococcus warneri [28]): 69.9%; Activity (Escherichia coli [29]): 99.1%; log10CFU/ml (Escherichia coli [30]): 5.4; log10CFU/ml (Escherichia coli [31]): 7.2; Activity (Staphylococcus warneri [32]): Active; log10CFU/ml (Staphylococcus warneri [33]): 7.2; log10CFU/ml (Staphylococcus warneri [34]): 5.3; Drug uptake (Escherichia coli [35]): Active; log10CFU/ml (Escherichia coli [36]): 5.2; Activity (Staphylococcus warneri [37]): 82.8%; Drug uptake (Staphylococcus warneri [38]): 74%
2 | C[n+]1ccc(-c2c3nc(c(-c4cc[n+](C)cc4)c4ccc([nH]4)c(-c4cc[n+](C)cc4)c4ccc([nH]4)c(-c4cc[n+](C)cc4)c4nc2C=C4)C=C3)cc1 | – | – | – | – | – | – | inactive | – | – | – | – | – | – | tde | – | – | Active | – | – | – | Activity (Escherichia coli [25]): inactive; Activity (Escherichia coli [39]): Active; Activity (Escherichia coli [40]): Active; Activity (Staphylococcus warneri [41]): inactive; Activity (Staphylococcus warneri [42]): Active
3 | C[n+]1ccc(-c2c3nc(c(-c4cc[n+](C)cc4)c4ccc([nH]4)c(-c4cc[n+](C)cc4)c4nc(c(-c5cc[n+](C)cc5)c5ccc2[nH]5)C=C4)C=C3)cc1.[I-].[I-].[I-].[I-] | 45.3% | 2.8 | 19.6% | 14.3% | 99.9% | 3.3 | – | 42.8% | 99.8% | 38.1% | 35% | 81.2% | 99.9% | – | 58.2% | 0.4 | – | 6.2 | Active | 5.7 | log10CFU/ml (Escherichia coli [23]): 0.2; Activity (Escherichia coli [24]): 99.8%; log10CFU/ml (Staphylococcus warneri [27]): 5.6; Activity (Staphylococcus warneri [28]): 37.9%; Activity (Escherichia coli [29]): 99.8%; log10CFU/ml (Escherichia coli [30]): 4.4; log10CFU/ml (Escherichia coli [31]): 6.1; log10CFU/ml (Staphylococcus warneri [33]): 4.7; log10CFU/ml (Staphylococcus warneri [34]): 1.8; Drug uptake (Escherichia coli [35]): Active; log10CFU/ml (Escherichia coli [36]): 2.9; Activity (Staphylococcus warneri [37]): 38.3%; Drug uptake (Staphylococcus warneri [38]): 47%
